Assay [1] concerns HEL (human embryonic lung). Kind of assay: Cytotoxic concentration required to inhibit Hel cell growth.
Assay [2] relates to Human alphaherpesvirus 3. Kind of assay: Antiviral activity against Varicella-Zoster virus (OKA). Type of assay: functional, organism-based.
Assay [3] has as its system HEL (human embryonic lung). Kind of assay: Minimal cytotoxic concentration, required to alter microscopically detectable cell morphology.
The test system of assay [4] is Human alphaherpesvirus 3. Kind of assay: Antiviral activity against Varicella-Zoster virus (thymidine kinase deficient) TK-(07/1). Type of assay: functional, organism-based.
Assay [5] has as its system Human alphaherpesvirus 3. The assay can be described thus: Antiviral activity against Varicella-Zoster virus (YS). The format is functional, organism-based.

SMILES strings stand for the structures.

In assay [1], `Nc1nc2c(ncn2COCCO)c(=O)[nH]1` [ACYCLOVIR] registered a CC50 above 400000 nM. Besides, the values for the half-maximal effective concentration (EC50) with Human alphaherpesvirus 3 [2] and in the assay with Human alphaherpesvirus 3 [4] were 1100 nM and 40000 nM, respectively. In assay [3], this molecule showed an MCC above 200 µM.

For the molecule `CCCCCc1ccc(-c2cc3cn([C@H]4C[C@H](O)[C@@H](CO)O4)c(=O)nc3s2)cc1`, in assay [1], the CC50 was above 200000 nM. The results for the EC50 with Human alphaherpesvirus 3 [5], in the assay on Human alphaherpesvirus 3 [2] and with Human alphaherpesvirus 3 [4] were 14 nM, 25 nM and 20000 nM, respectively. This molecule also returned an MCC in assay [3] of 50 µM.

On to `CCCCCCCc1ccc(-c2cc3cn([C@H]4C[C@H](O)[C@@H](CO)O4)c(=O)nc3s2)cc1`, for which the CC50 in assay [1] is above 200000 nM. Moreover, the EC50 in the assay on Human alphaherpesvirus 3 [5] is 180 nM; in the assay with Human alphaherpesvirus 3 [2], 270 nM; in the assay on Human alphaherpesvirus 3 [4] it was above 20000 nM. Moreover, the MCC in assay [3] came out at 50 µM.

For `CCCCc1ccc(-c2cc3cn([C@H]4C[C@H](O)[C@@H](CO)O4)c(=O)nc3s2)cc1`, the CC50 in assay [1] is above 200000 nM. In addition, the EC50 was 20 nM with Human alphaherpesvirus 3 [5], 28 nM in the assay on Human alphaherpesvirus 3 [2] and above 3200 nM in the assay on Human alphaherpesvirus 3 [4]. In addition, the MCC in assay [3] was 50 µM.

With `CCCc1ccc(-c2cc3cn([C@H]4C[C@H](O)[C@@H](CO)O4)c(=O)nc3s2)cc1`, the CC50 in assay [1] is above 200000 nM. Besides, the values for the EC50 in the assay on Human alphaherpesvirus 3 [5], in the assay with Human alphaherpesvirus 3 [2] and in the assay on Human alphaherpesvirus 3 [4] were 60 nM, 90 nM and above 16000 nM, respectively. The molecule also yielded an MCC in assay [3] of 80 µM.

The molecule `CCCCCCc1ccc(-c2cc3cn([C@H]4C[C@H](O)[C@@H](CO)O4)c(=O)nc3s2)cc1` gave a CC50 in assay [1] above 200000 nM. The EC50 in the assay with Human alphaherpesvirus 3 [5] is 43 nM; in the assay on Human alphaherpesvirus 3 [2], 80 nM; in the assay on Human alphaherpesvirus 3 [4], above 50000 nM. This molecule returned an MCC in assay [3] of 200 µM.

In turn, `CCCCCCCCc1ccc(-c2cc3cn([C@H]4C[C@H](O)[C@@H](CO)O4)c(=O)nc3s2)cc1` had a CC50 in assay [1] above 200000 nM. Moreover, the EC50 was 3400 nM with Human alphaherpesvirus 3 [5] and above 20000 nM in the assay on Human alphaherpesvirus 3 [4]. Further, the MCC in assay [3] was at least 20 µM.

For the molecule `CCc1ccc(-c2cc3cn([C@H]4C[C@H](O)[C@@H](CO)O4)c(=O)nc3s2)cc1`, the cytotoxic concentration (CC50) in assay [1] is above 200000 nM. Moreover, the values for the EC50 in the assay on Human alphaherpesvirus 3 [5], with Human alphaherpesvirus 3 [2] and in the assay with Human alphaherpesvirus 3 [4] were 150 nM, 200 nM and 20000 nM, respectively. In assay [3], this molecule yielded an MCC above 200 µM.

The molecule `CCCCCCCCc1cc2cn([C@H]3C[C@H](O)[C@@H](CO)O3)c(=O)nc2s1` displayed a CC50 in assay [1] of 53000 nM. Besides, the EC50 is 5 nM with Human alphaherpesvirus 3 [5], 2 nM in the assay with Human alphaherpesvirus 3 [2] and above 5000 nM in the assay with Human alphaherpesvirus 3 [4]. In assay [3], this molecule had an MCC of 20 µM.

Values taken from ChEMBL document CHEMBL1146720, “Bicyclic anti-VZV nucleosides: thieno analogues bearing an alkylphenyl side chain have reduced antiviral activity” (Bioorg Med Chem Lett, 2004).
